Source: patent US9376392B2, “2-(tert-butoxy)-2-(7-methylquinolin-6-yl) acetic acid derivatives for treating AIDS” (Gilead Sciences, Inc., priority 2012, dated 2016)

Test system: HIV-IIIb (MT-4 cells)
Assay: Test A: Antiviral Assays in MT4 Cells
Type: cell-based
Settings: MT-4 cells infected with HIV-IIIb, 5 days of incubation, CellTiter-Glo readout
Experimental: The antiviral properties of a compound disclosed herein may be determined using Test A described below.
Test A: Antiviral Assays in MT4 Cells
For the antiviral assay utilizing MT-4 cells, 0.4 μL of […] test concentration of 3-fold serially diluted compound in DMSO was added to 40 μL of cell growth medium (RPMI 1640, 10% FBS, 1% penicillin/Streptomycin, 1% L-Glutamine, 1% HEPES) in each well of 384-well assay plates (10 concentrations) in quadruplicate.
1 mL aliquots of 2×10e6 MT-4 cells are pre-infected for 1 and 3 hrs respectively, @ 37° C. with 25 μL (MT4) or of either cell growth medium (mock-infected) or a fresh 1:250 dilution of an HIV-IIIb concentrated ABI stock (0.004 m.o.i. for MT4 cells). Infected and uninfected cells are diluted in cell growth medium and 35 μL of 2000 (for MT4) cells is added to each well of the assay plates.
Assay plates were then incubated in a 37° C. incubator. After 5 days of incubation, […] 2× concentrated CellTiter-Glo™ Reagent (catalog #G7573, Promega Biosciences, Inc., Madison, Wis.) was added to each well of the assay plate. Cell lysis was carried out by incubating at room temperature for 2-3 min and then chemiluminescence was read using the Envision reader (PerkinElmer).

| Compound | EC50 (MT4, 120 h) | EC50 |
| --- | --- | --- |
| Cc1cc2nc(OCc3ccc(S(C)(=O)=O)cc3)ccc2c(-c2ccc3c4c(ccnc24)CCO3)c1[C@H](OC(C)(C)C)C(=O)O (atropisomer, axis not shown) [Example 9, (S)-2-tert-Butoxy-2-((R)-5-(2,3-dihydropyrano[4,3,2-de]quinolin-7-yl)-7-methyl-2-(4-(methylsulfonyl)benzyloxy)quinolin-6-yl)acetic acid] | 0.0212 µM |  |
| Cc1cc2c(ccc(=O)n2CC2CC2)c(-c2ccc3c4c(ccnc24)CCO3)c1[C@H](OC(C)(C)C)C(=O)O (atropisomer, axis not shown) [Example 1, (S)-2-tert-Butoxy-2-((R)-1-(cyclopropylmethyl)-5-(2,3-dihydropyrano[4,3,2-de]quinolin-7-yl)-7-methyl-2-oxo-1,2-dihydroquinolin-6-yl)acetic acid] | 0.409 µM |  |
| Cc1cc2c(ccc(=O)n2Cc2ccncc2)c(-c2ccc3c4c(ccnc24)CCO3)c1[C@H](OC(C)(C)C)C(=O)O (atropisomer, axis not shown) [Example 21, (S)-2-tert-Butoxy-2-((R)-5-(2,3-dihydropyrano[4,3,2-de]quinolin-7-yl)-7-methyl-2-oxo-1-(pyridin-4-ylmethyl)-1,2-dihydroquinolin-6-yl)acetic acid] | 0.755 µM |  |
| CCCCCC(C)(C)O[C@H](C(=O)O)c1c(C)cc2nc(C)ccc2c1-c1ccc2c3c(ccnc13)CCO2 (atropisomer, axis not shown) [Example 43, (S)-2-((S)-5-(2,3-Dihydropyrano[4,3,2-de]quinolin-7-yl)-2,7-dimethylquinolin-6-yl)-2-(2-methylheptan-2-yloxy)acetic acid] | 39.4 µM |  |
| Cc1cc2c(ccc(=O)n2Cc2cccc(OC(F)(F)F)c2)c(-c2ccc3c4c(ccnc24)CCO3)c1[C@H](OC(C)(C)C)C(=O)O (atropisomer, axis not shown) [Example 18, (S)-2-tert-Butoxy-2-((R)-5-(2,3-dihydropyrano[4,3,2-de]quinolin-7-yl)-7-methyl-2-oxo-1-(3-(trifluoromethoxy)benzyl)-1,2-dihydroquinolin-6-yl)acetic acid] | 0.185 µM |  |
| Cc1cc2c(ccc(=O)n2-c2cccc(S(C)(=O)=O)c2)c(-c2ccc3c4c(ccnc24)CCO3)c1[C@H](OC(C)(C)C)C(=O)O (atropisomer, axis not shown) [Example 37, (S)-2-tert-Butoxy-2-((R)-5-(2,3-dihydropyrano[4,3,2-de]quinolin-7-yl)-7-methyl-1-(3-(methylsulfonyl)phenyl)-2-oxo-1,2-dihydroquinolin-6-yl)acetic acid] | 8.43 µM |  |
| Cc1cc2nc(C(C)(F)F)ccc2c(-c2ccc3c4c(ccnc24)CCO3)c1[C@H](OC(C)(C)C)C(=O)O (atropisomer, axis not shown) [Example 52, (S)-2-tert-Butoxy-2-((R)-2-(1,1-difluoroethyl)-5-(2,3-dihydropyrano[4,3,2-de]quinolin-7-yl)-7-methylquinolin-6-yl)acetic acid] | 0.0651 µM |  |
| Cc1cc2nc(OCc3ccc(S(N)(=O)=O)cc3)ccc2c(-c2ccc3c4c(ccnc24)CCO3)c1[C@H](OC(C)(C)C)C(=O)O (atropisomer, axis not shown) [Example 17, (S)-2-tert-Butoxy-2-((R)-5-(2,3-dihydropyrano[4,3,2-de]quinolin-7-yl)-7-methyl-2-(4-sulfamoylbenzyloxy)quinolin-6-yl)acetic acid] | 0.084 µM |  |
| CCCC(C)(C)O[C@H](C(=O)O)c1c(C)cc2nc(C)ccc2c1-c1ccc2c3c(ccnc13)CCO2 (atropisomer, axis not shown) [Example 39, (2S)-2-((R)-5-(2,3-Dihydropyrano[4,3,2-de]quinolin-7-yl)-2,7-dimethylquinolin-6-yl)-2-(2-methylpentan-2-yloxy)acetic acid] |  | 0.0123 µM |
| Cc1cc2c(ccc(=O)n2Cc2cccc(C(F)(F)F)c2)c(-c2ccc3c4c(ccnc24)CCO3)c1[C@H](OC(C)(C)C)C(=O)O (atropisomer, axis not shown) [Example 5, (S)-2-tert-Butoxy-2-((R)-5-(2,3-dihydropyrano[4,3,2-de]quinolin-7-yl)-7-methyl-2-oxo-1-(3-(trifluoromethyl)benzyl)-1,2-dihydroquinolin-6-yl)acetic acid] | 0.0307 µM |  |
| Cc1cc2c(ccc3cnnn32)c(-c2ccc3c4c(ccnc24)CCO3)c1[C@H](OC(C)(C)C)C(=O)O (atropisomer, axis not shown) [Example 55, (S)-2-tert-butoxy-2-((R)-6-(2,3-dihydropyrano[4,3,2-de]quinolin-7-yl)-8-methyl-[1,2,3]triazolo[1,5-a]quinolin-7-yl)acetic acid] | 0.0784 µM |  |
| Cc1cc2c(ccc(=O)n2Cc2ccc(Oc3ccccc3)cc2)c(-c2ccc3c4c(ccnc24)CCO3)c1[C@H](OC(C)(C)C)C(=O)O (atropisomer, axis not shown) [Example 32, (S)-2-tert-Butoxy-2-((R)-5-(2,3-dihydropyrano[4,3,2-de]quinolin-7-yl)-7-methyl-2-oxo-1-(4-phenoxybenzyl)-1,2-dihydroquinolin-6-yl)acetic acid] | 3.06 µM |  |
| CCC(C)(C)O[C@H](C(=O)O)c1c(C)cc2nc(C)ccc2c1-c1ccc2c3c(ccnc13)CCO2 (atropisomer, axis not shown) [Example 44, (S)-2-((R)-5-(2,3-Dihydropyrano[4,3,2-de]quinolin-7-yl)-2,7-dimethylquinolin-6-yl)-2-(tert-pentyloxy)acetic acid] |  | 0.0117 µM |
| Cc1cc2c(ccc(=O)n2Cc2cccc(C(F)(F)F)c2)c(-c2ccc(Cl)cc2)c1[C@H](OC(C)(C)C)C(=O)O [Example 7, (S)-2-tert-Butoxy-2-(5-(4-chlorophenyl)-7-methyl-2-oxo-1-(3-(trifluoromethyl)benzyl)-1,2-dihydroquinolin-6-yl)acetic acid] | 0.187 µM |  |
| Cc1cc2nc(OCc3ccccc3OC(F)(F)F)ccc2c(-c2ccc3c4c(ccnc24)CCO3)c1[C@H](OC(C)(C)C)C(=O)O (atropisomer, axis not shown) [Example 19, (S)-2-tert-Butoxy-2-((R)-5-(2,3-dihydropyrano[4,3,2-de]quinolin-7-yl)-7-methyl-2-(2-(trifluoromethoxy)benzyloxy)quinolin-6-yl)acetic acid] | 0.07 µM |  |
| Cc1cc2c(ccc(=O)n2Cc2ccc(OC(F)(F)F)cc2)c(-c2ccc3c4c(ccnc24)CCO3)c1[C@H](OC(C)(C)C)C(=O)O (atropisomer, axis not shown) [Example 16, (S)-2-tert-Butoxy-2-((R)-5-(2,3-dihydropyrano[4,3,2-de]quinolin-7-yl)-7-methyl-2-oxo-1-(4-(trifluoromethoxy)benzyl)-1,2-dihydroquinolin-6-yl)acetic acid] | 1.61 µM |  |
| Cc1cc2c(ccc(=O)n2Cc2cccc(S(C)(=O)=O)c2)c(-c2ccc3c4c(ccnc24)CCO3)c1[C@H](OC(C)(C)C)C(=O)O (atropisomer, axis not shown) [Example 2, (S)-2-tert-Butoxy-2-((R)-5-(2,3-dihydropyrano[4,3,2-de]quinolin-7-yl)-7-methyl-1-(3-(methylsulfonyl)benzyl)-2-oxo-1,2-dihydroquinolin-6-yl)acetic acid] | 0.46 µM |  |
| Cc1cc2nc(OCc3cccc(OC(F)(F)F)c3)ccc2c(-c2ccc3c4c(ccnc24)CCO3)c1[C@H](OC(C)(C)C)C(=O)O (atropisomer, axis not shown) [Example 14, (S)-2-tert-Butoxy-2-((R)-5-(2,3-dihydropyrano[4,3,2-de]quinolin-7-yl)-7-methyl-2-(3-(trifluoromethoxy)benzyloxy)quinolin-6-yl)acetic acid] | 0.217 µM |  |
